The subject of series [1] is Plasmodium falciparum strain 3D7A. Kind of series: Parasite reduction ratio assay. The series is classed as cell-based. As to conditions: for asexual speed-of-kill profile: 10 × EC50, 24 and 48 h treatment, P. falciparum 3D7. An excerpt:
(§1) Figure 5 a) Stage of arrest assay showing that W482 (1) blocks ring‐trophozoite transition in the asexual stage of P. falciparum. […] Replicates of Giemsa‐stained blood smears can be found in Figure S4 (Supporting Information). c) Parasite reduction ratio assay conducted at 10 × EC50 of W482 (1). Data represent means and SD of P. falciparum 3D7 parasite survival measuring 3 independent replicates by two‐color flow cytometry using CFDA‐SE and Hoescht 33,342 staining.
Samples of parasites were collected at 24‐ and 48‐hour timepoints, whereby the compound was washed out and fresh erythrocytes pre‐labeled with intracellular dye were added. Samples were then incubated for 18 days, and then the number of viable parasites was quantified by flow cytometry (Figure 5c).
This assay was conducted following a previously described protocol using the Plasmodium falciparum strain 3D7A, MRA‐151.^[ [19] ^, [28] ^] The human biological samples used in the study were sourced ethically, and their research use was conducted in accordance with the terms of informed consent under an IRB/EC‐approved protocol.

For a further series, the target named is Albumax (Bos taurus, UniProt P02769). Nature of the series: in vitro. The format is in vitro ADME.
Chain of Albumax (P02769 25-607): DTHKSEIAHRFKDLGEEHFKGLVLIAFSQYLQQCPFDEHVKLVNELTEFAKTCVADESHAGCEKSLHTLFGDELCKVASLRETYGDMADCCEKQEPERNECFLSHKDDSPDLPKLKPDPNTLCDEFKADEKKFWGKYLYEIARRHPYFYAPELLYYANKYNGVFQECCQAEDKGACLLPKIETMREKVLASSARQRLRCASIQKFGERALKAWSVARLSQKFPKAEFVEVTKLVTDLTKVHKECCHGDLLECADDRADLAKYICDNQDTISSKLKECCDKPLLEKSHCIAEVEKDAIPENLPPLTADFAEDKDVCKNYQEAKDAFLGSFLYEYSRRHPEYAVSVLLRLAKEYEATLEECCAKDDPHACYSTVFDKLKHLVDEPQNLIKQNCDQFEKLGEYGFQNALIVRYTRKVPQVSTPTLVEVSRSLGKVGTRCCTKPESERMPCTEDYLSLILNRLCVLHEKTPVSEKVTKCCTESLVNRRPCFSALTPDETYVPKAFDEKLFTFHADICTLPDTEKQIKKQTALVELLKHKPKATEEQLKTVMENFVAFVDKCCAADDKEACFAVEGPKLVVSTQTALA
Series [2] in a line: in vitro. The format is in vitro ADME. The method, then:
(§2) The aqueous solubility and in vitro metabolic stability of selected analogs were assessed to determine if they had favorable parameters (Table 9 ).These analogs were selected based on their potency and the modifications that were incorporated, which led to compounds 55 and 56. […] The high lipophilicity of analogs 1, 11, and 16 was not favorable for metabolic stability.
(§3) This was performed as previously described.^[ [14] ^, [16] ^]

The subject of another series is PfABCI3-HAreg parasites. Nature of the series: Parasite proliferation assay with PfABCI3-HAreg parasites (SYBR Safe, 72 h). The series is classed as cell-based, Plasmodium falciparum. As to conditions: mean ± SEM, n = 4; for IC50: 72 h. The procedure: Glucosamine (GlcN) (5 mM) was used to reduce the level of pfabci3‐ha. Chloroquine and MMV020746 were used as negative and positive controls, respectively.
Figure 4 Sensitivity of PfABCI3‐HAreg parasites to growth inhibition by chloroquine (a), MMV020746 (b), and W482 (1) (c). Data for parasites in which pfabci3‐ha mRNA was reduced (+ GlcN) are shown in red. GlcN (5 mM) was added to the parasites 48 h prior to the assay and maintained throughout the 72 h assay. The data for parasites expressing a normal level of PfABCI3‐HA (‐GlcN) are shown in black. The data in all panels are from four independent experiments performed on different days. […] Parasites that were treated with or without GlcN (5 mM) were tested concurrently in each assay. TEXT PRINTED IN THE PICTURE: chloroquine: IC50 ± SEM (nM) - GlcN: 12.6 ± 1.1; IC50 ± SEM (nM) + GlcN: 11.9 ± 1.5 | MMV020746: IC50 ± SEM (nM) - GlcN: 104 ± 13; IC50 ± SEM (nM) + GlcN: 32.9 ± 3.9 | W482 (1): IC50 ± SEM (nM) - GlcN: 312 ± 28; IC50 ± SEM (nM) + GlcN: 153 ± 12
Parasite proliferation assays were performed with PfABCI3‐HAreg parasites^[ [19] ^] according to a previously described method, with the fluorescent nucleic acid intercalating dye SYBR Safe used to measure parasite viability.^[ [32] ^, [33] ^] The assays were commenced with cultures consisting of predominantly ring‐stage parasites with a starting hematocrit of 1% and parasitemia of 1%. […] It was shown previously that there is a reduction in pfabci3‐ha mRNA in PfABCI3‐HAreg exposed to 5 mM GlcN and a decrease in parasite viability over time.^[ [19] ^] The level of knockdown of the protein is not known.

For series [3], the system named is W482-resistant P. falciparum 3D7 populations. Nature of the series: 72 h Pf LDH assay against W482-selected populations. As to conditions: for EC50: 72 h Pf LDH assay. The series is classed as cell-based, Plasmodium falciparum. The procedure:
To identify the mechanism by which the pyrimidine‐2,4‐diamine class kills the P. falciparum parasite, a forward genetic study was performed on the hit compound W482 (1). We selected W482 (1) as the representative compound from this class, as the forward genetics and phenotype assays were performed in parallel to the medicinal chemistry described in the prior section. […] Genomic DNA was then prepared from these two resistant populations and the parental 3D7 strain and whole genome sequenced.
Figure 3 The activity of W482 (1) against W482‐selected populations and their 3D7 parental. The data are mean and SD from 3 independent 72 h Pf LDH assays.
This was performed as previously described.^[ [14] ^] Briefly, 3D7 wildtype parasites initially exposed to 2 × EC50 (0.3 µM) of W482 (1) and incremental increases in EC50 were applied until 10 × EC50 was reached. The resistant populations were not cloned for whole‐genome sequencing.

The subject of series [4] is P. falciparum 3D7 parasites. Kind of series: P. falciparum 3D7 asexual stage parasite LDH assay, 72 h. The format is cell-based, Plasmodium falciparum. The method, then:
(§4) To establish the SAR, the antiparasitic activity of the analogs was determined using an assay that measures the lactate dehydrogenase (LDH) activity of asexual P. falciparum 3D7 parasites after 72 h of compound treatment. Mammalian cytotoxicity was monitored using an assay that measures the growth of HepG2 cells using Cell Titer‐Glo after 48 h of compound treatment.
This was performed as previously described, whereby lactate dehydrogenase (LDH) was used as a metabolic marker for parasite growth after a 72‐h incubation period.^[ [14] ^, [30] ^]

The subject of series [5] is P. falciparum 3D7 parasites. Nature of the series: Stage of asexual arrest assay. The format is cell-based, Plasmodium falciparum. The procedure: The asexual stage of arrest and parasite reduction ratio (PRR) assays were undertaken on W482 (1) to assess the speed‐of‐asexual kill and the alignment of the pyrimidine‐2,4‐diamine class with the Target Candidate Profiles (TCPs).^[ [27] ^] […] Parasite samples were collected from the culture at 12, 24, 36, 48, and 60 h, and microscopy was performed on Giemsa‐stained thin blood‐smeared samples. These samples were also quantified with flow cytometry using SYBR Green.
as §1

Series [6] is described as follows: physchem. The series is classed as physicochemical. The settings on record: kinetic in PBS, pH 7.4; read-out: Aqueous solubility pH 7.4. The method, then: as §2, §3
Series [7] is described as follows: physchem. The series is classed as physicochemical. As to conditions: shake-flask method; listed as 1. The procedure: as §3
Series [8] can be described thus: in vitro. The series is classed as cell-based. The settings on record: human; HepG2 viability over 48 h, Cell Titer-Glo; means and SDs, 3 experiments; read-out: HepG2 CC50 (SD). The method, then:
as §4
This was performed as previously described.^[ [14] ^, [31] ^]
A general note: ATP-based viability assays read luminescence as a measure of living cells.

In series [9] the test system is early stage (I–III) gametocytes. As to conditions: at 2.5 µM; cited from earlier work.
A further series has as its system P. berghei liver stage. The settings on record: at 50 µM; cited from earlier work.
Series [10] deals with late stage (IV‐V) gametocytes. As to conditions: at 5 µM; cited from earlier work.
For a further series, the system named is hemoglobin catabolism. Also noted: method as in PMID 27572391. The settings on record: previous metabolomic profiling; cited from earlier work.
The subject of series [11] is P. falciparum 3D7 parasites. As to conditions: asexual P. falciparum 3D7; hits from GSK TCAMS screen / MMV Malaria Box; cited from earlier work.
Where [12] appears, read: Plasmodium falciparum, 3D7, 72 h, P. falciparum 3D7, LDH activity, 72 h exposure, means and SDs, 3 or more experiments, read-out: Pf parasite EC50 (SD).

Read-outs that look alike come from different tables or passages of the source.

For orientation: IC50 means the point on the concentration scale where inhibition reaches its midpoint. For orientation: EC50 means the concentration giving half of the maximal effect. As usually defined, the solubility is the dissolved amount per volume that the medium holds. “3‐Cyclohexyl‐N‐(4‐((4‐(dimethylamino)‐6‐methylpyrimidin‐2‐yl)amino)phenyl)propenamide [W482 (1)]”: in [1], the asexual speed-of-kill profile entry is recorded as “fast killing profile”. The lag phase in [1] (parasite killing profile) was found to be 24 h. Besides, the “Albumax binding % bound” value on Albumax came out at 99.1%. Also, the “Human liver microsomes CLint” value in “in vitro [2]” is reported as 174 µL/min/mg; in the series “in vitro [2]” (listed as 1) it was over 117 µL/min/mg. Further, the “Rat hepatocytes CLint” value in the series “in vitro [2]” is over 92 µL/min/10^6 cells. Moreover, the figures for the IC50 with PfABCI3-HAreg parasites (PfABCI3-HAreg parasites expressing normal level of PfABCI3-HA (-GlcN)) and in the series with PfABCI3-HAreg parasites (PfABCI3-HAreg parasites with reduced pfabci3-ha mRNA (+ 5 mM GlcN)) were 312 ± 28 nM and 153 ± 12 nM, respectively. Moreover, the “fold lower IC50 for +GlcN parasites than -GlcN parasites” value with PfABCI3-HAreg parasites was found to be 2.0 ± 0.1 fold. Moreover, the EC50 stood at 396 nM in series [3] (population #1, read-out: EC50 against W482-selected population #1); 407 nM in series [3] (population #2, read-out: EC50 against W482-selected population #2); 197 nM in series [4] (parental 3D7 in resistance selection study, 72 h Pf LDH assay, 3 independent assays, read-out: EC50 against parental 3D7). In addition, in series [3] (two recovered populations vs parental 3D7), the “fold decreased activity of resistant populations compared to parental 3D7” value is recorded as 2 fold. For the same compound, the “asexual stage of arrest” value in series [5] (10 × EC50 (1.4 µM) for 60 h, Giemsa-stained smears) is listed as “ring to trophozoite transition stage”. Further, the “percentage of parasitemia over time” value in series [5] (10 × EC50 (1.4 µM), SYBR Green flow cytometry) is reported as “declines after 36 h”. Also, the solubility in “physchem [6]” came to 3.8 µM. Also, the eLogD in the series “physchem [7]” is given as 4.6–5.0.

In general, CC50 refers to the concentration that lowers cell viability or growth by half. Turning to `CCN(CC)c1cc(C)nc(Nc2ccc(NC(=O)CCC3CCCCC3)cc2)n1` [Compound 4], in the series “in vitro [8]”, the CC50 amounted to 18000 nM. Further, the EC50 in [4] (setting [12]) amounted to 520 nM.

As to `Cc1cc(N2CCCC2)nc(Nc2ccc(NC(=O)CCC3CCCCC3)cc2)n1` [Compound 7, 3‐Cyclohexyl‐N‐(4‐((4‐methyl‐6‐(pyrrolidin‐1‐yl)pyrimidin‐2‐yl)amino)phenyl)propanamide], the CC50 in “in vitro [8]” is 12600 nM. For the same compound, the EC50 in series [4] (setting [12]) worked out at 540 nM.

As for `CN(C)c1cc(Nc2ccc(NC(=O)CCC3CCCCC3)cc2)nc2ccccc12` [Compound 22, 3‐Cyclohexyl‐N‐(4‐((4‐(dimethylamino)quinolin‐2‐yl)amino)phenyl)propanamide], in “in vitro [8]”, the CC50 was 15900 nM. In addition, the EC50 in series [4] (setting [12]) was found to be 2470 nM.

For the compound `Cc1cc(N(C)C)nc(Nc2ccc(NC(=O)Nc3ccccc3)cc2)n1` [MMV020243 (2)], in [9], the “inhibition of early stage (I–III) gametocytes” value is 67%. Besides, in the series with P. berghei liver stage, the “inhibition of P. berghei liver stage development” value was 2%. Further, the “inhibition of late stage (IV‐V) gametocytes” value in series [10] is listed as 2%.

Take `Cc1cc(N2CCCC2)nc(Nc2ccc(NC(=O)CCc3ccccc3)cc2)n1` [MMV396669 (3)]: the “inhibition of early stage (I–III) gametocytes” value in series [9] was 79%. Also, in the series with hemoglobin catabolism, the metabolomic profile result is “peptide signature consistent with hemoglobin catabolism inhibition”. Moreover, the “inhibition of P. berghei liver stage development” value with P. berghei liver stage was 3%. Also, in series [10], the “inhibition of late stage (IV‐V) gametocytes” value is listed as 21%. Moreover, the EC50 in [11] is 1070 nM.

With `CCc1nc(N)nc(N)c1-c1ccc(Cl)cc1` [Pyrimethamine, reference compound], in series [1], the asexual speed-of-kill profile result was “moderate killing rate”.

(Values after article PMC12811996, “Exploration and Characterization of the Antimalarial Activity of Pyrimidine‐2,4‐Diamines for which Resistance is Mediated by the ABCI3 Transporter” (Chemmedchem, 2025).)
